Results reported in paper PMC9414302, “UPLC-ESI-QTRAP-MS/MS Analysis to Quantify Bioactive Compounds in Fennel (Foeniculum vulgare Mill.) Waste with Potential Anti-Inflammatory Activity” (Metabolites, 2022).
Read-outs that look alike come from different tables or passages of the source.

Legend:
COX-1 = biological target: T1, COX-1 (Ovis aries, UniProt P05979); assay: COX inhibitor screening fluorometric assay (COX-1); format: biochemical
T1 construct: purchased Cayman Chemicals 700100
T1 sequence (P05979 25-600): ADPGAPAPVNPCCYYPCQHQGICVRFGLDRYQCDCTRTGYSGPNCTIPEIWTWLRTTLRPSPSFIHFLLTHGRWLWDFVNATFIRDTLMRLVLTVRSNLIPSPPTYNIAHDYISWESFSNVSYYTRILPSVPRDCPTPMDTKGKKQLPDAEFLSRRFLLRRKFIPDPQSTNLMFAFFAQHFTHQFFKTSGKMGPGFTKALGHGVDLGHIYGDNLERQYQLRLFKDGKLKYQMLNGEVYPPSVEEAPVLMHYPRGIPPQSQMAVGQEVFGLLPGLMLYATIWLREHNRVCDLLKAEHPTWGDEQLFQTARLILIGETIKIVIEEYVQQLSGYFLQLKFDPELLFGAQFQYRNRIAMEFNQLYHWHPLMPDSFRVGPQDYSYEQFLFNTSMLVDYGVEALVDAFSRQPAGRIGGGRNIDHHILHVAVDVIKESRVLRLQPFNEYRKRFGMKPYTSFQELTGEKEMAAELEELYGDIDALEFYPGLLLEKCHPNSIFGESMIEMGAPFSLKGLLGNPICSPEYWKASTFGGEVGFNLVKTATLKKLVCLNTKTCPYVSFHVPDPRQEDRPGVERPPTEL
Method: (§1) Anti-inflammatory activity was evaluated determining the capacity of some major metabolites of F. vulgare to inhibit the cyclooxygenase activity (COX). […] The assay uses the peroxidase component of COXs. The reaction between PGG2 and ADHP creates resorufin, a highly fluorescent compound. […] The inhibition of COXs is directly proportional to the reduction of resorufin fluorescence.
(§2) The analyses were made in triplicate and the results are expressed as the mean of the IC50 (µM) ± the standard deviation.

COX-2 = biological target: T2, COX-2 (Homo sapiens, UniProt P35354); assay: COX inhibitor screening fluorometric assay (COX-2); format: biochemical
T2 construct: purchased Cayman Chemicals 700100
T2 sequence (P35354 18-604): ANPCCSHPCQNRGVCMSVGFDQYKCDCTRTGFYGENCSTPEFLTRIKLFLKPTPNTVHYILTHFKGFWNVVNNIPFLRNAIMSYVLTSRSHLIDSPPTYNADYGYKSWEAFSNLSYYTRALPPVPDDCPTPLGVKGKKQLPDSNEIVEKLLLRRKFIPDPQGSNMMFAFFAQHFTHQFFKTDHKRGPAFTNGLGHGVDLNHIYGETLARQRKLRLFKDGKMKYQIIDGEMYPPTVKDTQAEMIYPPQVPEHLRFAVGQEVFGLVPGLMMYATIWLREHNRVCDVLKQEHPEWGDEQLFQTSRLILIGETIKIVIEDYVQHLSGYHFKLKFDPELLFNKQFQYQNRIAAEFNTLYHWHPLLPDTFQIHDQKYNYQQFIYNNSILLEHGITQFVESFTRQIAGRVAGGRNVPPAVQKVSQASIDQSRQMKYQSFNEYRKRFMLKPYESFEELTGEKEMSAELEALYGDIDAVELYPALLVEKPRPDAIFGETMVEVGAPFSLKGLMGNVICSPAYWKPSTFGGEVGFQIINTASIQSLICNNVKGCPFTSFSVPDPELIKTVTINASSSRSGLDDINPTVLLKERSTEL
Method: as §1, §2

[1] = fluorometric assay (resorufin, ex 535 nm / em 590 nm), mean of three determinations ± SD, metabolites tested at 25, 50, 100 and 150 µM, SC-560 at 2, 4, 8 and 10 nM

Structure (SMILES): O=c1c(O[C@@H]2O[C@H](CO)[C@@H](O)[C@H](O)[C@H]2O)c(-c2ccc(O)c(O)c2)oc2cc(O)cc(O)c12 [Quercetin glucoside, quercetin glucoside]
- IC50 (COX-1): 103 ± 8.66 µM

Structure (SMILES): O=C(/C=C/c1ccc(O)c(O)c1)OC1C(O)CC(OC(=O)/C=C/c2ccc(O)c(O)c2)(C(=O)O)CC1O (stereo not drawn) [Dicaffeoylquinic acid, dicaffeoylquinic acid]
- IC50 (COX-2): 14.8 ± 2.39 µM
- IC50 (COX-1): 85.6 ± 10.9 µM

Structure (SMILES): COc1cc(-c2oc3cc(O)cc(O)c3c(=O)c2OC2OC(C(=O)O)C(O)C(O)C2O)ccc1O (stereo not drawn) [Isorhamnetin glucuronide, isorhamnetin glucuronide]
- IC50 (COX-1; [1]): 94.7 ± 1.22 µM

Structure (SMILES): O=C(O)[C@H]1O[C@@H](Oc2c(-c3ccc(O)c(O)c3)oc3cc(O)cc(O)c3c2=O)[C@H](O)[C@@H](O)[C@@H]1O [Quercetin glucuronide, quercetin glucuronide]
- IC50 (COX-1; [1]): 571 ± 40 µM

Structure (SMILES): O=C(O)C1OC(Oc2c(-c3ccc(O)cc3)oc3cc(O)cc(O)c3c2=O)C(O)C(O)C1O (stereo not drawn) [Kaempferol glucuronide, kaempferol glucuronide]
- IC50 (COX-1; [1]): 228 ± 16.8 µM
